Data reported in patent publication US9580418B2, “Bicyclic aromatic carboxamide compounds useful as Pim kinase inhibitors” (Incyte Corporation, priority 2014, dated 2017).

Columns and labels:
pBAD in KMS.12.BM cells = assay: Pim pBAD signaling assay in KMS.12.BM cells (Example B); assay type: cell-based; conditions: Homo sapiens, 2.5 h incubation, pBAD ELISA
Pim-3 = Pim-3 (Homo sapiens (Human), UniProt Q86V86); assay: Pim-3 kinase assay (Pim enzyme assays, Example A); assay type: biochemical; conditions: 1 mM ATP, BAD peptide substrate; read-out: PIM3 IC50
Pim-2 = Pim-2 (Homo sapiens (Human), UniProt Q9P1W9); assay: Pim-2 kinase assay (Pim enzyme assays, Example A); assay type: biochemical; conditions: 1 mM ATP, CREBtide peptide substrate; read-out: PIM2 IC50
Pim-1 = Pim-1 (Homo sapiens (Human), UniProt P11309); assay: Pim-1 kinase assay (Pim enzyme assays, Example A); assay type: biochemical; conditions: 1 mM ATP, BAD peptide substrate; read-out: PIM1 IC50
Sequence of Pim-1 (P11309 whole entry): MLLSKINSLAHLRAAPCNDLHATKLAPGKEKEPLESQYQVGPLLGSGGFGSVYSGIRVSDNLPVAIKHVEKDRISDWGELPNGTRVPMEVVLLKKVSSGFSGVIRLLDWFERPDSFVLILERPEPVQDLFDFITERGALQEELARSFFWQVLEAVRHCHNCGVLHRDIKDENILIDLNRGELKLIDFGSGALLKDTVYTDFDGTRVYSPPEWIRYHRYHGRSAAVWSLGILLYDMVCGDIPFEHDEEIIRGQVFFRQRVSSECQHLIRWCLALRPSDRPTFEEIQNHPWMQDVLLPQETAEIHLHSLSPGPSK

Sequence of Pim-2 (Q9P1W9 whole entry): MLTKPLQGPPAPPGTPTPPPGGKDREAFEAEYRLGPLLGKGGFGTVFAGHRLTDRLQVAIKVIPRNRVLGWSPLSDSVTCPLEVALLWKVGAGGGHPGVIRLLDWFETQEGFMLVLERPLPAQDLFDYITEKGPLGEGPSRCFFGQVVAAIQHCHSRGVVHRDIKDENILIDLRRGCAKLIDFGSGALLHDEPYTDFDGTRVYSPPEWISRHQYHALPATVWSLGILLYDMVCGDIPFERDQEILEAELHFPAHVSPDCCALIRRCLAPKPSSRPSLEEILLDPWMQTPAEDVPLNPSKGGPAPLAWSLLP

Row | SMILES | IC50 (pBAD in KMS.12.BM cells) [nM] | IC50 (Pim-3) [nM] | IC50 (Pim-2) [nM] | IC50 (Pim-1) [nM]
1 | N[C@@H]1CN(c2ccncc2NC(=O)c2ccc3ncc(-c4ccc(N5CCOCC5)nc4)cc3n2)C[C@H](C2CC2)[C@H]1O [Example 37, N-{4-[(3R,4R,5S)-3-Amino-5-cyclopropyl-4-hydroxypiperidin-1-yl]pyridin-3-yl}-7-(6-morpholin-4-ylpyridin-3-yl)-1,5-naphthyridine-2-carboxamide] | ≤ 50 | ≤ 10 | ≤ 100 | ≤ 10
2 | N#CC1CCN(c2cnc3ccc(C(=O)Nc4cnccc4N4C[C@@H](N)[C@H](O)[C@@H](C5CC5)C4)nc3c2)CC1 [Example 41, N-{4-[(3R,4R,5S)-3-Amino-5-cyclopropyl-4-hydroxypiperidin-1-yl]pyridin-3-yl}-7-(4-cyanopiperidin-1-yl)-1,5-naphthyridine-2-carboxamide] | 50 to 250 | 10 to 50 | 1000 to 10000 | 10 to 50
3 | C[C@H]1CN(c2ccncc2NC(=O)c2ccc3ccc(N4CCC(N5CCOCC5)CC4)cc3n2)C[C@@H](N)[C@@H]1O [Example 26, N-{4-[(3R,4R,5S)-3-Amino-4-hydroxy-5-methylpiperidin-1-yl]pyridin-3-yl}-7-(4-morpholin-4-ylpiperidin-1-yl)quinoline-2-carboxamide] | 50 to 250 | ≤ 10 | ≤ 100 | ≤ 10
4 | C[C@H]1CN(c2ccncc2NC(=O)c2ccc3ncc(N4CCOCC4)cc3n2)C[C@@H](N)[C@@H]1O [Example 8, N-{4-[(3R,4R,5S)-3-Amino-4-hydroxy-5-methylpiperidin-1-yl]pyridin-3-yl}-7-morpholin-4-yl-1,5-naphthyridine-2-carboxamide] | ≤ 50 | ≤ 10 | 100 to 1000 | ≤ 10
5 | C[C@H]1CN(c2ccncc2NC(=O)c2ccc3ccc(-c4ccc(N5CCOCC5)nc4)cc3n2)C[C@@H](N)[C@@H]1O [Example 46, N-{4-[(3R,4R,5S)-3-Amino-4-hydroxy-5-methylpiperidin-1-yl]pyridin-3-yl}-7-(6-morpholin-4-ylpyridin-3-yl)quinoline-2-carboxamide] | ≤ 50 | ≤ 10 | ≤ 100 | ≤ 10
6 | COc1ccc(-c2cnc3ccc(C(=O)Nc4cnccc4N4C[C@@H](N)[C@H](O)[C@@H](C)C4)nc3c2)cn1 [Example 7, N-{4-[(3R,4R,5S)-3-Amino-4-hydroxy-5-methylpiperidin-1-yl]pyridin-3-yl}-7-(6-methoxypyridin-3-yl)-1,5-naphthyridine-2-carboxamide] | ≤ 50 | ≤ 10 | ≤ 100 | ≤ 10
